According to patent CN106581687A, “以乳清蛋白为基质的桃柁酚抗菌纳米水凝胶及其制备方法” (Jilin University, priority 2016, dated 2017):
Values after ≈ are worked out from the molar mass of the structure shown.

Tested on: Staphylococcus aureus (金黄色葡萄球菌), S.aureus strains ATCC 29213
Experiment: 最小抑菌浓度MIC (minimum inhibitory concentration of totarol)
Type: cell-based
Details: value used for loading in the Example concerned

CC(C)c1c(O)ccc2c1CC[C@H]1C(C)(C)CCC[C@]21C [桃柁酚, 桃柁酚(Totarol)]
MIC (Staphylococcus aureus, ATCC29213, totarol against Staphylococcus aureus): 2 µg/mL (≈ 6.98 µM) | minimum inhibitory concentration (MIC value) (totarol against Staphylococcus aureus): 4 µg/mL (≈ 14 µM)
